± gives the expanded uncertainty stated by the source.
Assay: refractive index (Na D-line) (dimensionless); xn = mol fraction of the nth substance listed
Settings: 100 kPa, Liquid, Standard Abbe refractometry

Compound: OCCCO [propan-1,3-diol] + O
- refractive index (288.15 K, x2 = 0): 1.4407 ± 0.029
- refractive index (288.15 K, x2 = 0.1737): 1.4361 ± 0.029
- refractive index (288.15 K, x2 = 0.2519): 1.4335 ± 0.029
- refractive index (288.15 K, x2 = 0.3669): 1.429 ± 0.029
- refractive index (288.15 K, x2 = 0.4553): 1.4248 ± 0.029
- refractive index (288.15 K, x2 = 0.5501): 1.419 ± 0.028
- refractive index (288.15 K, x2 = 0.6509): 1.4107 ± 0.028
- refractive index (288.15 K, x2 = 0.7532): 1.3985 ± 0.028
- refractive index (288.15 K, x2 = 0.8508): 1.381 ± 0.028
- refractive index (293.15 K, x2 = 0): 1.4393 ± 0.029
- refractive index (293.15 K, x2 = 0.1737): 1.4347 ± 0.029
- refractive index (293.15 K, x2 = 0.2519): 1.4321 ± 0.029
- refractive index (293.15 K, x2 = 0.3669): 1.4276 ± 0.029
- refractive index (293.15 K, x2 = 0.4553): 1.4234 ± 0.029
- refractive index (293.15 K, x2 = 0.5501): 1.4177 ± 0.028
- refractive index (293.15 K, x2 = 0.6509): 1.4095 ± 0.028
- refractive index (293.15 K, x2 = 0.7532): 1.3973 ± 0.028
- refractive index (293.15 K, x2 = 0.8508): 1.38 ± 0.028
- refractive index (298.15 K, x2 = 0): 1.438 ± 0.029
- refractive index (298.15 K, x2 = 0.1737): 1.4334 ± 0.029
- refractive index (298.15 K, x2 = 0.2519): 1.4308 ± 0.029
- refractive index (298.15 K, x2 = 0.3669): 1.4263 ± 0.029
- refractive index (298.15 K, x2 = 0.4553): 1.4221 ± 0.028
- refractive index (298.15 K, x2 = 0.5501): 1.4165 ± 0.028
- refractive index (298.15 K, x2 = 0.6509): 1.4083 ± 0.028
- refractive index (298.15 K, x2 = 0.7532): 1.3962 ± 0.028
- refractive index (298.15 K, x2 = 0.8508): 1.379 ± 0.028
- refractive index (303.15 K, x2 = 0): 1.4367 ± 0.029
- refractive index (303.15 K, x2 = 0.1737): 1.432 ± 0.029
- refractive index (303.15 K, x2 = 0.2519): 1.4295 ± 0.029
- refractive index (303.15 K, x2 = 0.3669): 1.425 ± 0.029
- refractive index (303.15 K, x2 = 0.4553): 1.4208 ± 0.028
- refractive index (303.15 K, x2 = 0.5501): 1.4152 ± 0.028
- refractive index (303.15 K, x2 = 0.6509): 1.4071 ± 0.028
- refractive index (303.15 K, x2 = 0.7532): 1.3951 ± 0.028
- refractive index (303.15 K, x2 = 0.8508): 1.378 ± 0.028
- refractive index (308.15 K, x2 = 0): 1.4353 ± 0.029
- refractive index (308.15 K, x2 = 0.1737): 1.4306 ± 0.029
- refractive index (308.15 K, x2 = 0.2519): 1.4281 ± 0.029
- refractive index (308.15 K, x2 = 0.3669): 1.4236 ± 0.029
- refractive index (308.15 K, x2 = 0.4553): 1.4194 ± 0.028
- refractive index (308.15 K, x2 = 0.5501): 1.4139 ± 0.028
- refractive index (308.15 K, x2 = 0.6509): 1.4059 ± 0.028
- refractive index (308.15 K, x2 = 0.7532): 1.3939 ± 0.028
- refractive index (308.15 K, x2 = 0.8508): 1.3771 ± 0.028
- refractive index (313.15 K, x2 = 0): 1.434 ± 0.029
- refractive index (313.15 K, x2 = 0.1737): 1.4294 ± 0.029
- refractive index (313.15 K, x2 = 0.2519): 1.4268 ± 0.029
- refractive index (313.15 K, x2 = 0.3669): 1.4223 ± 0.028
- refractive index (313.15 K, x2 = 0.4553): 1.4181 ± 0.028
- refractive index (313.15 K, x2 = 0.5501): 1.4127 ± 0.028
- refractive index (313.15 K, x2 = 0.6509): 1.4047 ± 0.028
- refractive index (313.15 K, x2 = 0.7532): 1.3929 ± 0.028
- refractive index (313.15 K, x2 = 0.8508): 1.3761 ± 0.028
- refractive index (318.15 K, x2 = 0): 1.4327 ± 0.029
- refractive index (318.15 K, x2 = 0.1737): 1.4281 ± 0.029
- refractive index (318.15 K, x2 = 0.2519): 1.4255 ± 0.029
- refractive index (318.15 K, x2 = 0.3669): 1.421 ± 0.028
- refractive index (318.15 K, x2 = 0.4553): 1.4169 ± 0.028
- refractive index (318.15 K, x2 = 0.5501): 1.4115 ± 0.028
- refractive index (318.15 K, x2 = 0.6509): 1.4036 ± 0.028
- refractive index (318.15 K, x2 = 0.7532): 1.3918 ± 0.028
- refractive index (318.15 K, x2 = 0.8508): 1.3752 ± 0.028
